For data set [1], the system named is MDA-MB-231. Briefly: Antiproliferative activity against human MDA-MB-231 cells assessed as inhibition of cell growth measured after 48 hrs by MTT assay. The note with it: MDA-MB-231, 48 h. The data set is classed as functional, cell-based.
In the next data set the test system is A549. Briefly: Antiproliferative activity against human A549 cells assessed as inhibition of cell growth measured after 48 hrs by MTT assay. In kind it is functional, cell-based. The note with it: A549, 48 h. In general terms: Tetrazolium assays rely on reduction of a dye to a coloured formazan, in cell work by metabolically active cells.
In a further data set the test system is MCF7. Briefly: Antiproliferative activity against human MCF7 cells assessed as inhibition of cell growth measured after 48 hrs by MTT assay. In kind it is functional, cell-based. The note with it: MCF7, 48 h.
A further data set deals with HCT-116. Briefly: Antiproliferative activity against human HCT-116 cells assessed as inhibition of cell growth measured after 48 hrs by MTT assay. In kind it is functional, cell-based. Conditions: HCT-116, 48 h.
The nature of data set [2]: Cytotoxicity against human L02 cells assessed as inhibition in cell growth measured after 48 hrs by MTT assay. In kind it is toxicity, cell-based.
Data set [3] is described as follows: Cytotoxicity against human MCF-10A cells assessed as inhibition in cell growth measured after 48 hrs by MTT assay. The data set is classed as toxicity, cell-based.
Data set [4] in a line: Selectivity index, ratio of IC50 for cytotoxicity against human L02 cells to IC50 for antiproliferative activity against human MDA-MB-231 cells. The data set is classed as toxicity, cell-based. Conditions: L02 cells versus MDA-MB-231 cells, read-out: Ratio IC50.
Data set [5] in a line: Selectivity index, ratio of IC50 for cytotoxicity against human MCF-10A cells to IC50 for antiproliferative activity against human MDA-MB-231 cells. The data set is classed as toxicity, cell-based. The note with it: MCF-10A cells versus MDA-MB-231 cells, read-out: Ratio IC50.
For data set [6], the system named is MDA-MB-231. Briefly: Antiproliferative activity against human MDA-MB-231 cells assessed as effect on NO level at 25 uM incubated for 2 hrs. The data set is classed as functional, cell-based.
Data set [7] deals with MDA-MB-231. Briefly: Antiproliferative activity against human MDA-MB-231 cells assessed as inhibition of cell growth measured after 48 hrs in presence of 3,4-bis(phenylsulfonyl)-1,2,5-oxadiazole 2-oxide by MTT assay. In kind it is functional, cell-based. Conditions: MDA-MB-231, 48 h.
Data set [8] is described as follows: Toxicity in BALB/C mouse xenografted with human MDA-MB-231 cells assessed as change in body weight at 2.5 mg/kg, ip administered every 2 days measured after 3 weeks. In kind it is organism-based. Conditions: in vivo, 504 h.
The subject of data set [9] is MDA-MB-231. Briefly: Antiproliferative activity against human MDA-MB-231 cells assessed as inhibition of cell growth measured after 48 hrs in presence of 7-(diethylamino)-2-oxo-2H-chromene-3-carboxylic acid by MTT assay. The data set is classed as functional, cell-based. The note with it: MDA-MB-231, 48 h.
Data set [10] relates to MDA-MB-231. Briefly: Induction of apoptosis in human MDA-MB-231 cells assessed as increase in CypD level incubated for 8 hrs by Western blotting analysis. The data set is classed as functional, cell-based. Conditions: dose 5-20 nM. In general terms: Immunoblotting shows a protein as a band on a membrane.
The test system of data set [11] is MDA-MB-231. Briefly: Induction of apoptosis in human MDA-MB-231 cells assessed as effect on ANT level at 20 nM incubated for 8 hrs by Western blotting analysis. The data set is classed as functional, cell-based.

Structures are written as SMILES. pIC50: −log10 of the molar value. The source made the active and inactive calls. No cut-off for these calls is given here.

On to `O=c1ccc2cc(OCCCOc3no[n+]([O-])c3S(=O)(=O)c3ccccc3)c(OCCCOc3no[n+]([O-])c3S(=O)(=O)c3ccccc3)cc2o1`, for which the pIC50 (in general, −log10 of the IC50, conventionally taken in molar units) in the data set on MDA-MB-231 [1] is 7.24; in the data set on A549, 5.71; in the data set with MCF7 it was 5.63; in the data set on HCT-116, 5.95.

`O=c1ccc2cc(O)c(OCCCCOc3no[n+]([O-])c3S(=O)(=O)c3ccccc3)cc2o1`: the pIC50 in the data set on MDA-MB-231 [1] is 5.70; in the data set on A549, 4.93; in the data set on MCF7, 5.06; in the data set with HCT-116 it was 5.30.

With `O=c1ccc2cc(OCCCCOc3no[n+]([O-])c3S(=O)(=O)c3ccccc3)c(OCCCCOc3no[n+]([O-])c3S(=O)(=O)c3ccccc3)cc2o1`, the figures for the IC50 at 48 h in data set [2] and in data set [3] were 5.64 µM and 6.44 µM, respectively. Moreover, the pIC50 in the data set on MDA-MB-231 [1] is 7.38; in the data set with A549, 5.92; in the data set on MCF7 it was 5.43; in the data set with HCT-116 it was 5.69. Further, the selectivity ratio in data set [4] is 134; in [5] it was 153. Moreover, the outcome in the data set on MDA-MB-231 [6] was Active.

`O=c1ccc2cc(O)c(O)cc2o1` [ESCULETIN]: the pIC50 in the data set with MDA-MB-231 [1] is under 4.30; with A549, under 4.30; with MCF7 it was under 4.30; in the data set with MDA-MB-231 [7], 5.13; in the data set with HCT-116, under 4.30.

For `O=S(=O)(c1ccccc1)c1no[n+]([O-])c1S(=O)(=O)c1ccccc1`, in the data set with MDA-MB-231 [1], the pIC50 was 5.10.

On to `CCN(CC)c1ccc2cc(C(=O)OCCCCCCOc3cc4ccc(=O)oc4cc3OCCCCCCOc3no[n+]([O-])c3S(=O)(=O)c3ccccc3)c(=O)oc2c1`, for which the pIC50 was 6.97 in the data set with MDA-MB-231 [1], 5.35 in the data set on A549, 5.52 with MCF7 and 5.04 with HCT-116.

As for `CCN(CC)c1ccc2cc(C(=O)OCCCOc3cc4ccc(=O)oc4cc3OCCCCCCOc3no[n+]([O-])c3S(=O)(=O)c3ccccc3)c(=O)oc2c1`, the pIC50 in the data set on MDA-MB-231 [1] is 7.28; in the data set on A549, 5.65; in the data set with MCF7, 5.97; in the data set with HCT-116 it was 5.49.

Consider `COc1cccc2c1C(=O)c1c(O)c3c(c(O)c1C2=O)C[C@@](O)(C(=O)CO)C[C@@H]3O[C@H]1C[C@H](N)[C@H](O)[C@H](C)O1` [DOXORUBICIN], for which the IC50 – broadly, the midpoint of a concentration-inhibition curve – at 48 h was found to be 0.6 µM in data set [2] and 0.74 µM in data set [3]. Further, the pIC50 with MCF7 is 6.13; in the data set with HCT-116, 6.82. The Activity entry in [8] is “Non-Toxic”.

For `O=c1ccc2cc(O)c(OCCCCCCOc3no[n+]([O-])c3S(=O)(=O)c3ccccc3)cc2o1`, the IC50 at 48 h is 5.73 µM in data set [2] and 12.6 µM in data set [3]. The pIC50 in the data set with MDA-MB-231 [1] was 6.92; in the data set with A549 it was 4.90; with MCF7, 5.28; in the data set on MDA-MB-231 [9], 6.89; in the data set with HCT-116, 5.57. The figures for the selectivity ratio in data set [4] and in [5] were 47.8 and 394, respectively. Further, the result in the data set on MDA-MB-231 [6] was Active.

`CCN(CC)c1ccc2cc(C(=O)OCCCCOc3cc4ccc(=O)oc4cc3OCCCCCCOc3no[n+]([O-])c3S(=O)(=O)c3ccccc3)c(=O)oc2c1`: the pIC50 is 7.28 with MDA-MB-231 [1], 5.79 in the data set on A549, 5.61 in the data set on MCF7 and 5.43 in the data set on HCT-116.

On to `CCN(CC)c1ccc2cc(C(=O)OCCCCCCOc3no[n+]([O-])c3S(=O)(=O)c3ccccc3)c(=O)oc2c1`, for which the result in the data set on MDA-MB-231 [10] and in the data set on MDA-MB-231 [11] was inactive.

As for `O=c1ccc2cc(OCCCCCCOc3no[n+]([O-])c3S(=O)(=O)c3ccccc3)c(OCCCCCCOc3no[n+]([O-])c3S(=O)(=O)c3ccccc3)cc2o1`, the pIC50 in the data set on MDA-MB-231 [1] is 6.83; in the data set with A549, 5.52; in the data set on MCF7, 4.98; in the data set on HCT-116, 5.62.

As to `O=c1ccc2cc(O)c(OCCCCCOc3no[n+]([O-])c3S(=O)(=O)c3ccccc3)cc2o1`, the pIC50 in the data set on MDA-MB-231 [1] is 5.67; in the data set with A549, 4.89; in the data set with MCF7, 5.10; in the data set with HCT-116, 5.37.

On to `O=c1ccc2cc(OCCCCCOc3no[n+]([O-])c3S(=O)(=O)c3ccccc3)c(OCCCCCOc3no[n+]([O-])c3S(=O)(=O)c3ccccc3)cc2o1`, for which the pIC50 in the data set with MDA-MB-231 [1] is 7.00; in the data set on A549, 5.55; with MCF7 it was 5.67; in the data set on HCT-116 it was 5.51.

For `O=c1ccc2cc(O)c(OCCCOc3no[n+]([O-])c3S(=O)(=O)c3ccccc3)cc2o1`, the pIC50 is 5.67 in the data set on MDA-MB-231 [1], 4.92 in the data set with A549, 4.95 in the data set on MCF7 and 5.22 with HCT-116.

Source of the values: ChEMBL document CHEMBL5321282, “Design, Synthesis, and Biological Evaluation of Esculetin-Furoxan-DEAC Ternary Hybrids for Anti-Triple Negative Breast Cancer” (J Med Chem, 2023).
